Test results from ChEMBL document CHEMBL1201862, “PubChem BioAssay data set” (2004).
Activity calls are given as the source filed them.

Assays:
[1] = molecular target: T1, Heat shock factor protein 1 (Mus musculus, UniProt P38532); test: HSF1 potentiators in luciferase reporter cells, confirmation, cell-based, NIH3T3, luminescence, dose retest (AID 435004); type: functional;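 also: stress induced by proteasome inhibitor MG132 added 30 min after compound; luciferase reporter driven by HSF1 response element in NIH3T3 cells; actives raise luminescence as potentiators of the MG132 stress response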
T1 sequence (P38532 whole entry): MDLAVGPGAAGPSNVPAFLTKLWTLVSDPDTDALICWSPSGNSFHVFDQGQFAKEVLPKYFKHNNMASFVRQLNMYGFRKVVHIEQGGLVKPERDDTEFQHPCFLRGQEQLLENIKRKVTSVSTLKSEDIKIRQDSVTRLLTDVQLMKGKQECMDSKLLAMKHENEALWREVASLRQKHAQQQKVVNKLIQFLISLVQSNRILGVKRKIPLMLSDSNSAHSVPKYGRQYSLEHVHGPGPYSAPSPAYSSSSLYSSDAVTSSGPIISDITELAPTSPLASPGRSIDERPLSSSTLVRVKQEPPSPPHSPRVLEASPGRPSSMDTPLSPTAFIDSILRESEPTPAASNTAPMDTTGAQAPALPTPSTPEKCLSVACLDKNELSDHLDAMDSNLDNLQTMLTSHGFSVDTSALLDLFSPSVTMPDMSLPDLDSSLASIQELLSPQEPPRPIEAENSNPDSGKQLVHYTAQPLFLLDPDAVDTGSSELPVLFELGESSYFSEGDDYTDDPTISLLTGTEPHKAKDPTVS

[2] = molecular target: T1, Heat shock factor protein 1; test: inhibition of MG132-induced HSE-luciferase signal, confirmation, cell-based, NIH3T3, luminescence, dose retest (AID 2382); type: functional;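 also: NIH3T3 fibroblasts with HSF1-driven luciferase reporter stressed by proteasome inhibitor MG132; luminescence from HSF1-driven luciferase expression after 8 hours of MG132 stress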
[3] = Luminescence Cell-Based Dose Response HTS to Identify Inhibitors of 5'UTR Stem-Loop Driven Prion Protein mRNA Translation in H4 Neuroglioblastoma Cells. [Related pubchem assays: 1827 (Project Summary), 1813 (Primary HTS)]; type: functional
[4] = inhibitors of SNCA 5'UTR-driven reporter translation, confirmation, H4 neuroglioma cells, luminescence (AID 1988); type: functional, cell-based
[5] = inhibitors of firefly luciferase expression or activity, dose response, H4 neuroglioma cells, luminescence (AID 1990); type: functional, cell-based
[6] = molecular target: T2, Corticotropin-releasing factor receptor 2/Corticotropin-releasing factor-binding protein (Homo sapiens, UniProt P24387+Q13324); test: activators of CRF receptor 2 with binding protein – uHTS hits, confirmation (AID 602473); type: functional; conditions: read-out: EC50_Mean
T2 sequence (Q13324 whole entry): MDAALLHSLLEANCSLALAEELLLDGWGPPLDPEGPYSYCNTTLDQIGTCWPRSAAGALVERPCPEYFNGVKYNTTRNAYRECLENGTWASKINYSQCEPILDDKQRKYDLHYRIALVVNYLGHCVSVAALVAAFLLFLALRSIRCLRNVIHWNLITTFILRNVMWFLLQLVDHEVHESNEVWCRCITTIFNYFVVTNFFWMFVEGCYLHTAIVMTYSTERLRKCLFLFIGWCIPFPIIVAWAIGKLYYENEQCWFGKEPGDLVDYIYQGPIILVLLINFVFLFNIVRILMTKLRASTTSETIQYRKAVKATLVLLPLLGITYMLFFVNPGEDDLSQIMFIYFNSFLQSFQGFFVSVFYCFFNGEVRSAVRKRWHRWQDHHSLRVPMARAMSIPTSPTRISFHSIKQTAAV
T2 sequence (P24387 whole entry): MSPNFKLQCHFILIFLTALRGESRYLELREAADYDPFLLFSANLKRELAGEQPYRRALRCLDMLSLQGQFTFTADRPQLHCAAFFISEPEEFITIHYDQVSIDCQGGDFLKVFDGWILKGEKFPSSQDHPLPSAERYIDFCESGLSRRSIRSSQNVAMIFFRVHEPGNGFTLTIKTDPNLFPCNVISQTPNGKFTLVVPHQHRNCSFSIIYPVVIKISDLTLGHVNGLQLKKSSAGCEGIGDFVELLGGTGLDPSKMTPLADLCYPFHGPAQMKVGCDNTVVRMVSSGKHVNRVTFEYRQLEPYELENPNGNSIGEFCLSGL

[7] = molecular target: T2, Corticotropin-releasing factor receptor 2/Corticotropin-releasing factor-binding protein; test: Dose Response confirmation of uHTS hits for small molecule antagonists of the CRF-binding protein and CRF-R2 receptor complex.; type: functional; conditions: read-out: IC50_Mean
Cytochrome P450 2C19 = Cytochrome P450 2C19 (Homo sapiens, UniProt P33261); test: Cytochrome panel assay with activity outcomes. Panel member name: p450-cyp2c19 Compounds with AC50 equal or less than 10 uM are considered active; type: functional
Cytochrome P450 2C19, sequence (P33261 whole entry): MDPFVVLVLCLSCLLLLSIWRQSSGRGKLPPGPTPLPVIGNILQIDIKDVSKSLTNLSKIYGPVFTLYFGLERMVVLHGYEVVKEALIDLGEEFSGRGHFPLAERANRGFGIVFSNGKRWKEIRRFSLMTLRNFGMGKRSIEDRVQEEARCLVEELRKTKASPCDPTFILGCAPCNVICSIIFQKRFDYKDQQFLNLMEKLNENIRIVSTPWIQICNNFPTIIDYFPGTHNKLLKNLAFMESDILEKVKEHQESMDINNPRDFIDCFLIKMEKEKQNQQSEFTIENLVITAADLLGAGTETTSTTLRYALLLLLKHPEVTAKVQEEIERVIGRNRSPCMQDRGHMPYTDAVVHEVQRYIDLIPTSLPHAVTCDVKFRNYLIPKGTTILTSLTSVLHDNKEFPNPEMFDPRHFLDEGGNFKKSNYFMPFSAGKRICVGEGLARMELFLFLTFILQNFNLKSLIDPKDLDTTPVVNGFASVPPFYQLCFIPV

[8] = HEp-2 cell cytotoxicity, dose response, cytotoxicity control for RSV inhibitor project, HTS (AID 2410); type: functional; conditions: human respiratory syncytial virus
[9] = test system: Streptococcus sp. 'group A'; test: growth inhibition of control SK(-) GAS strain, dose response, counter-screen for streptokinase expression inhibitor project, luminescence, kanamycin, BacTiterGlo, confirmation (AID 1900); type: functional, organism-based
Streptococcus = test: Group A Streptococcus viability loss, dose response, counter-screen for streptokinase expression inhibitor project, luminescence, BacTiterGlo (AID 1915); type: functional, organism-based;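 also: potency for reduction of bacterial viability or growth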
Cytochrome P450 2D6 = Cytochrome P450 2D6 (Homo sapiens, UniProt P10635);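 also: CYP2D6 member of a cytochrome P450 panel assay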
Cytochrome P450 2D6, sequence (P10635 whole entry): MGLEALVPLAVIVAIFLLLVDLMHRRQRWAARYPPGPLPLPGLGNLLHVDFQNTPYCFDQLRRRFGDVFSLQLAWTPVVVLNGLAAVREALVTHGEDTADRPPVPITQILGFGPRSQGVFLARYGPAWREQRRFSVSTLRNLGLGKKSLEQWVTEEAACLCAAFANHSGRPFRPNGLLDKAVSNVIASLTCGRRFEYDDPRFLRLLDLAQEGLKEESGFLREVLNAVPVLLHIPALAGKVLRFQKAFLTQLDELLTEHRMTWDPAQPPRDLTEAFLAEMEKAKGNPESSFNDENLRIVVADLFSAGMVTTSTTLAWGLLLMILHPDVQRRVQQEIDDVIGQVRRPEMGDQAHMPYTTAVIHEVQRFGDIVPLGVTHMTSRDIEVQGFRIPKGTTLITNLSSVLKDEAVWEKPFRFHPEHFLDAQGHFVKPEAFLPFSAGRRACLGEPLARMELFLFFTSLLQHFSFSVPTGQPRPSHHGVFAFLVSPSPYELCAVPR

Cytochrome P450 2C9 = Cytochrome P450 2C9 (Homo sapiens, UniProt P11712)
Cytochrome P450 2C9, sequence (P11712 whole entry): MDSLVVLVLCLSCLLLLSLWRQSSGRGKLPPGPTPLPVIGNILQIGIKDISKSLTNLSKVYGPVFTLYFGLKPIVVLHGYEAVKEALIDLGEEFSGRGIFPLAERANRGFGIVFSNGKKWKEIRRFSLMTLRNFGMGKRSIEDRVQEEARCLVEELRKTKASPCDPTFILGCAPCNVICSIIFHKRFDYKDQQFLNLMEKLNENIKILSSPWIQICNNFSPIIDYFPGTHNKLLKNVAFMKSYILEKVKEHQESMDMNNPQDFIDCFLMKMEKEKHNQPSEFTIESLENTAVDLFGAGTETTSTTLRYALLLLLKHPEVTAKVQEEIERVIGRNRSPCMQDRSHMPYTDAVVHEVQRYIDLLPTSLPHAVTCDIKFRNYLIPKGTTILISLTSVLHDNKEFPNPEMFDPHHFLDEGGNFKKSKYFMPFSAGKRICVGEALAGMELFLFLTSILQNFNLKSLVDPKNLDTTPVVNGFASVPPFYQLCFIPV

Cc1ccc(/C=C2/NC(=O)N(Cc3ccc(Br)cc3)C2=O)o1
EC50 [1]: > 260 µM (inactive)

Cc1ccc(S(=O)(=O)CCN2CCN(c3ccccc3)CC2)cc1
EC50 [1]: > 260 µM (inactive)

NC(=O)CSc1nnc([C@@H](N)Cc2c[nH]c3ccccc23)o1
EC50 [2]: > 195 µM (not active)

COc1cc(Br)cc(/C=N/N(CCO)C2=NS(=O)(=O)c3ccccc32)c1OC
EC50 [3]: > 120 µM (not active)
EC50 [4]: 18.1 µM (active)
EC50 [5]: 18.5 µM (active)

CCn1c(CNC(C)=O)nnc1SCC(=O)c1ccc(Br)cc1
EC50 [1]: > 260 µM (inactive)

Cc1ccc(S(=O)(=O)NNC(=O)c2cnn(-c3ccc(Cl)cc3)c2C(F)(F)F)cc1
EC50 [1]: > 260 µM (inactive)

O=C(Nc1ccccn1)c1cc(-c2cccc(Cl)c2)nc2ccccc12
EC50 [3]: > 120 µM (not active)
EC50 [4]: 15.3 µM (active)
EC50 [5]: > 120 µM (not active)

O=C1CCN(C(=O)Nc2ccccc2Cl)N1
EC50 [1]: > 260 µM (inactive)

COc1ccc(C(=O)Nc2ccc(OCc3ccccc3)cc2)cc1[N+](=O)[O-]
EC50 [2]: 15.2 µM (active)

O=C(N/N=C/C=C/c1ccccc1)c1[nH]nc2c1CCC2
EC50 [4]: 3.42 µM (active)
EC50 [5]: 10.6 µM (inconclusive)

COc1ccc(NC(S)=Nc2ccc(C)c(S(=O)(=O)N3CCCCC3)c2)cc1
EC50 [2]: > 195 µM (not active)

Cc1c(Cl)c([N+](=O)[O-])nn1CC(=O)NC1CCCCC1
EC50 [6]: > 53 µM (inactive)
IC50 [7]: > 47.1 µM (inactive)

Cc1cc(C)n(-c2nc3c(c(=O)[nH]c(=O)n3C)n2CC(O)COc2ccc(Cl)cc2Cl)n1 (configuration not stated)
EC50 [3]: 10.3 µM (active)
EC50 [4]: 9.24 µM (active)
EC50 [5]: 11.6 µM (active)

C[n+]1cccc(CNC(=O)C=NO)c1
AC50 (Cytochrome P450 2C19; read-out: AC50): 10 µM (inconclusive)

CCN(C(=O)c1cc2c(O)nc3ccc(C)cc3c2s1)c1ccc(F)cc1
EC50 [2]: > 195 µM (not active)

O=C(Nc1cccc2ccccc12)N1CC=CCC1
EC50 [6]: > 53 µM (inactive)
IC50 [7]: < 0.368 µM (active)

O=S(=O)(N1CCCCC1)N1CCN(c2ccc(F)cc2)CC1
EC50 [2]: > 195 µM (not active)

Cc1[nH]c2ccccc2c1SCc1nnc(SCc2ccccc2)n1C
EC50 [6]: > 53 µM (inactive)
IC50 [7]: > 47.1 µM (inactive)

CCC1=C(OC(=O)N(CC)CC)N2C(=O)O/C(=N\CC3CC3)[C@]2(Cc2ccccc2)[C@H]2C1=CC[C@H]1C(=O)N(c3ccccc3)C(=O)[C@H]12
CC50 [8]: 36.7 µM (active)

COc1ccc(C(=O)Nc2cc(C(F)(F)F)ccc2-n2cnc3ccccc32)cc1
EC50 [1]: > 260 µM (inactive)

O=C(NCCc1cn[nH]c1)C1CCC(=O)N(CCc2cccc(F)c2)C1 (configuration not stated)
EC50 [6]: > 53 µM (inactive)
IC50 [7]: > 47.1 µM (inactive)

CCC(N=C(S)NC1CCCCC1)c1ccccc1 (configuration not stated)
EC50 [2]: > 195 µM (not active)

COc1ccc2nc(NC(=O)C3CCCN(S(=O)(=O)c4cccc5nonc45)C3)sc2c1 (configuration not stated)
CC50 [8]: > 50 µM (active)

COc1ccccc1N1CCN(C2CCCN(C(=O)c3cc(C4CC4)on3)C2)CC1 (configuration not stated)
EC50 [6]: > 53 µM (inactive)
IC50 [7]: > 47.1 µM (inactive)

Cc1ccc(C(=O)N2CCN(C(=O)CN3CCOCC3)C2)cc1
EC50 [6]: > 53 µM (inactive)
IC50 [7]: > 47.1 µM (inactive)

Fc1cccc(F)c1-c1nc(-c2ccncc2)no1
CC50 [8]: 38 µM (active)

COc1ccc(CCN=C(NS(=O)(=O)c2ccc(Cl)cc2)c2ccccc2)cc1
EC50 [3]: > 120 µM (not active)
EC50 [4]: > 120 µM (not active)
EC50 [5]: > 120 µM (not active)

COc1ccc(NC(=O)CN(C)S(=O)(=O)c2ccc(Br)s2)cc1OC
EC50 [1]: > 260 µM (inactive)

CO[C@H]1C=CO[C@@]2(C)Oc3c(C)c(O)c4c(O)c(c5c(nc6cc(C)ccn65)c4c3C2=O)NC(=O)C(C)=CC=C[C@H](C)[C@H](O)[C@@H](C)[C@@H](O)[C@@H](C)[C@H](OC(C)=O)[C@@H]1C
EC50 [9]: < 0.06 µM (active)
EC50 (Streptococcus): 0.071 µM (active)

Clc1ccc(CSc2nnc(-c3sccc3-n3cccc3)o2)cc1
EC50 [1]: > 260 µM (inactive)
AC50 (Cytochrome P450 2D6): 11.2 µM (inconclusive)
AC50 (Cytochrome P450 2C9): 14.1 µM (inconclusive)

CCNc1ncc2nc(-c3cccs3)c(=O)n(Cc3cccs3)c2n1
AC50 (Cytochrome P450 2C19; read-out: AC50): 10 µM (inconclusive)
AC50 (Cytochrome P450 2C9): 39.8 µM (inconclusive)

Cc1ccc(CN2CC(=O)N3[C@H]4c5cc(Cl)ccc5OC[C@@H]4[C@H](c4ccccc4)[C@]3(C)C2=O)cc1
EC50 [6]: > 53 µM (inactive)
IC50 [7]: > 47.1 µM (inactive)

Cc1cccc(NC(S)=Nc2ccc(Cl)c(Cl)c2)c1
EC50 [9]: 11.5 µM (active)
EC50 (Streptococcus): > 150 µM (not active)

CC(C)CNP(=S)(c1ccccc1)C(C)(C)C (configuration not stated)
EC50 [6]: > 53 µM (inactive)
IC50 [7]: > 47.1 µM (inactive)

CCCCN1CN=C(S)N(c2ccc(C(=O)OCC)cc2)C1
EC50 [2]: > 195 µM (not active)

CN(CCC1CCCCO1)C(=O)CCc1nnc(CCCCc2ccccc2)o1 (configuration not stated)
EC50 [1]: 242 µM (active)

Cc1ccccc1CS(=O)(=O)CCC(=O)NCCCN1CCN(c2ccccc2F)CC1
AC50 (Cytochrome P450 2C19): inconclusive
AC50 (Cytochrome P450 2C9): 5.62 µM (inconclusive)

COc1ccc(N2CCN(C(=O)c3ccc(NS(=O)(=O)c4ccccc4)cc3)CC2)cc1
EC50 [2]: > 195 µM (not active)

CCOC(=O)c1c(-c2ccc(OC)cc2)csc1NC(=O)CNCc1ccco1
EC50 [6]: > 53 µM (inactive)
IC50 [7]: > 47.1 µM (inactive)

O=C1N=C(N2CCOCC2)S/C1=C/c1cccs1
AC50 (Cytochrome P450 2C19; read-out: AC50): 25.1 µM (inconclusive)

Cc1ccc(C(=O)Nc2cccnc2Oc2ccc(Cl)cc2)cc1
EC50 [3]: > 120 µM (not active)
EC50 [4]: > 120 µM (not active)
EC50 [5]: 17.6 µM (active)

Cc1noc(C)c1-c1cncnc1NCc1cccnc1
AC50 (Cytochrome P450 2C19; read-out: AC50): 15.8 µM (inconclusive)

Cc1cccc(Nc2ncccc2C(=O)O)c1C [NIXYLIC ACID]
EC50 [2]: > 195 µM (not active)

Cc1ccc2c(c1)N(C(=O)CCC(=O)N1CCC3(CC1)OCCO3)CCO2
EC50 [2]: > 195 µM (not active)

O=C(CCSc1ccc(Br)cc1)Nc1cccnc1
EC50 [6]: > 53 µM (inactive)
IC50 [7]: > 47.1 µM (inactive)
